Experimental data from US20150164762A1, “USE OF ETHANOLAMINE PHOSPHATE” (priority 2012, published 2015).
Like-named read-outs stand apart in the source and are kept apart here.

Assays:
BEAS-2B [1] = test: Proliferation test with GABA receptor agonists and GABA-A antagonist (WST-8); format: cell-based, human; settings: 0.1% FBS, 72 hours
Description: […] […] Next, 10 μl per well of GABA (GABA-A and GABA-B receptor agonist) and homotaurine (GABA-A agonist) were added. A proliferation test (WST-8 assay) was performed after 72 hours.
[…] […] 10 μl per well of EP solution was added. A proliferation test (WST-8 assay) was performed after 72 hours.

BEAS-2B [2] = test: Proliferative effects of EP and its metabolic derivatives (WST-8); format: cell-based, human
BEAS-2B [3] = test: DNA microarray of H2O2-treated samples and correlational analysis with EP; format: cell-based, human; settings: H2O2 125 μM, 6 hours
Description: The data of Example 13 were used as the EP gene expression data. Cell preparation and H2O2 administration were performed as in Test 13. Samples that had been treated for 6 hours with H2O2 at a final concentration of 125 μM were used as samples for gene expression analysis by DNA microarray.

BEAS-2B [4] = test: Cell toxicity of H2O2 after EP pre-treatment (WST-8 assay); format: cell-based, human; settings: Homo sapiens, BEAS-2B, read-out: EC50 (50% cell death concentration of H2O2)
Description: Cells of the normal airway epithelial cell line BEAS-2B were seeded at a density of 1×10^5/cm^2 on a 96-well plate, and after 24 hours the medium was replaced with 0.5% FBS RPMI 1640 containing EP at final concentrations of 0, 250 and 500 μM. 24 hours after medium replacement the medium was replaced with 0.5% FBS RPMI-1640, and serially diluted H2O2 was administered (n=4). 24 hours after H2O2 administration a cell toxicity test WST-8 assay (Cell Counting Kit-8, Dojindo) was performed. For the data analysis, the 50% cell death concentration EC50 was calculated with GraphPad Prism 5 statistical analysis software.

HHDPC cells = test: WST-8 proliferation test, primary normal human hair dermal papilla cells (HHDPC); settings: high concentrations
Description: HHDPC cells (Cosmo Bio) were seeded to 1×10^4 cells/cm^2 on a 96-well plate. Complete MSCM medium (500, ScienCell) was used as the medium. After 24 hours, the cells were washed gently with 200 μl per well of PBS, the medium was replaced with 90 μl per well of 0% FBS DMEM with 1 vol % of complete MSCM medium added thereto, and the cells were cultured for 24 hours. After culture, 10 μl per well of EP solution was added, and a proliferation test (WST-8 assay) was performed 6 days after EP administration. The WST-8 assay was performed as in Example 1. The same test was performed using minoxidil, which has a clinical hair growth effect.

BEAS-2B [5] = test: Permeability test, 4-kilodalton fluorescent dextran through BEAS-2B cell sheet (Papp); format: cell-based, human; settings: Dex 1 μM, with or without EP 1 mM
Description: Cells of the established normal human airway epithelial cell line BEAS-2B were seeded to 1×10^5 cells/cm^2 on a cell culture insert (353104, BD Falcon) (FIG. 14). 10% FBS RPMI-1640 was used as the medium. The amount of medium was 200 μl on the insert side and 750 μl on the well side. Beginning the next day, substitution/medium replacement was performed once a day with 1% FBS RPMI-1640 prepared with the following 4 reagent conditions, and transepithelial electrical resistance (TER) was measured with MilliCell (Millipore). • Condition 1: Control • Condition 2: EP 1 mM • Condition 3: Dexamethasone 1 μM (dexamethasone (Dex): positive control substance known to enhance barrier function) • Condition 4: EP 1 mM and Dex 1 μM
7 days after cell seeding a permeability test was performed as follows.
A 4-kilodalton fluorescent dextran molecule (Sigma) was added to the cell culture insert to a concentration of 0.1 mg/ml, 20 μl of the medium on the well side was removed after 1 hour, and the amount of permeating fluorescent dextran was estimated from the fluorescent strength at each concentration. The permeation rate Papp of a substance from the insert side to the well side is normally determined by the following formula.
Papp=(volume of medium on well side/insert area×initial insert concentration)×(altered concentration on well side/elapsed time)

C[N+]1(C)CCc2cc3c(cc2[C@H]1[C@@H]1OC(=O)c2c1ccc1c2OCO1)OCO3.[Cl-] [BM, (−)-Bicuculline Methochloride]
inhibition of the proliferative action of EP (BEAS-2B [1]): not inhibited

C[N+](C)(C)CCOP(=O)(O)OP(=O)([O-])OC[C@H]1O[C@@H](n2ccc(N)nc2=O)[C@H](O)[C@@H]1O [CDP-choline]
animal cell proliferation without serum or growth factors (BEAS-2B [2]): not obtained

NCCCC(=O)O [GABA]
proliferative action (BEAS-2B [1]): neither the GABA-A and GABA-B receptor agonist GABA nor the EP structural analog and GABA-A receptor agonist homotaurine exhibited any statistically significant proliferative action

OO [H2O2, hydrogen peroxide, reference compound]
expression of apoptosis-associated genes reduced by EP (30 probes) (BEAS-2B [3]): generally had their expression increased | expression of cytokines and chemokines (BEAS-2B [3]): induced expression of cytokines and chemokines | EC50 (BEAS-2B [4]; cells pre-treated with 250 uM EP): 190 µM | EC50 (BEAS-2B [4]; cells pre-treated with 500 uM EP): 177 µM | EC50 (BEAS-2B [4]; control, no EP pre-treatment, 24 h): 128 µM

Nc1cc(N2CCCCC2)nc(N)[n+]1[O-] [Minoxidil, minoxidil, reference compound]
cell toxicity (HHDPC cells): toxic above that range

C[C@@H]1C[C@H]2[C@@H]3CCC4=CC(=O)C=C[C@]4(C)[C@@]3(F)[C@@H](O)C[C@]2(C)[C@@]1(O)C(=O)CO [dexamethasone, reference compound]
drop in Papp (BEAS-2B [5]): no rise in TER or drop in Papp

OCCNCCO [diethanolamine]
animal cell proliferation without serum or growth factors (BEAS-2B [2]): not obtained

NCCO [ethanolamine]
animal cell proliferation without serum or growth factors (BEAS-2B [2]): not obtained | proliferative action (BEAS-2B [2]; 0.1% FBS, 72 hours): much weaker than that of EP

NCCCS(=O)(=O)O [homotaurine]
proliferative action (BEAS-2B [1]): neither the GABA-A and GABA-B receptor agonist GABA nor the EP structural analog and GABA-A receptor agonist homotaurine exhibited any statistically significant proliferative action

C[N+](C)(C)CCOP(=O)(O)O [phosphorylcholine]
animal cell proliferation without serum or growth factors (BEAS-2B [2]): not obtained
